For the assay, the system named is Brahman steers (Bos indicus). The assay can be described thus: Rumen metabolites in rumen fluid of fistulated Brahman steers, quantified by NMR. The following applies: for Dimethylsulfone in rumen fluid / Trimethylamine in rumen fluid: rumen fluid 3 h post feeding. The assay is classed as in vivo. An excerpt:
Eight fistulated Brahman steers (Bos indicus) were randomly allocated to two groups (4 animals per group) and received a forage ad libitum diet (Rhode grass hay (Chloris […]), chemical composition: DM, 917 g/kg fresh matter; in g/kg of DM: OM, 806; CP, 169; NDF, 661; ADF, 359; ADL, 46; ash, 116 and GE 17.38 MJ/kg). […] Animals were adapted to the diet over a 21 d period. After that initial period, experimental animals were placed into individual pens in an animal house for the measurement of intakes (10 d) and were treated with cyclodextrin (2 g/100 kg LW) and molasses (60 mL/d). On the last 2 days animals were placed into open-circuit respiration chambers for collection of rumen samples. […] PDMN was provided to the animals mixed with molasses (60 mL/day, molasses were previously diluted in water: 1:4 water:molasses) and mixed with the hay at three different times: 0 h, 3 h and 5 h after the feed was offered. […] On days 20 and 21 of treatment both groups were placed in open-circuit respiration chambers for rumen fluid collection. Rumen fluid samples (approx. 60 mL per animal) were collected using a probe with 2 layers of cheesecloth through the cannula of the animal at 3 h post feeding, during confinement in respiration chambers to determine rumen metabolites.

The mark [1] stands for this setting: 21 days treatment compared with control period.

Take `ClC(Cl)Cl` [Chloroform, chloroform, reference compound]: where the note is “1.6 g chloroform-CD/100 kg LW for 21 days, control period 21”, the “Dimethylsulfone in rumen fluid” value is 80 μmol/L rumen fluid. Further, the “Trimethylamine in rumen fluid” value (1.6 g chloroform-CD/100 kg LW for 21 days, control period 564) was 828 μmol/L rumen fluid. For the same compound, the “Effect on the methyl donor dimethylsulfone and triethylamine in rumen fluid (in words)” value under setting [1] is on record as “statistically significant increase”.

In the case of `O=[N+]([O-])OCCCO` [PDMN, 1,3-propanediol mononitrate], the “Dimethylsulfone in rumen fluid” value (2.5 g PDMN/animal/day (10% on silicon dioxide) for 21 days, control period 20) was 113 μmol/L rumen fluid. Moreover, the “Trimethylamine in rumen fluid” value (2.5 g PDMN/animal/day (10% on silicon dioxide) for 21 days, control period 334) came out at 1242 μmol/L rumen fluid. Also, the “Effect on dimethylsulfone and trimethylamine in rumen fluid (in words)” value reads like this: under setting [1], “statistically significant increase”; (21 days treatment compared with control period, listed as propanediolediol mononitrate) “particularly effective”.

The values above are taken from patent US20240000721A1, “COMPOSITIONS FOR REDUCTION OF OXIDATIVE STRESS, IMPROVEMENT TO THE IMMUNE SYSTEM, PROMOTION OF HEALTHY CARTILAGE AND/OR ALLEVIATION OF PAIN ACCOMPANYING INFLAMMATORY DISEASES IN RUMINANTS” (DSM IP Assets B.V., priority 2018, published 2024).
